# Assay results reported in EP3409671B1, “ISOTHIAZOLE DERIVATIVES AS GPR120 AGONISTS FOR THE TREATMENT OF TYPE II DIABETES” (Janssen Pharmaceutica NV, priority 2014, dated 2015).
# Target: T1, Human GPR120 short form (Homo sapiens, UniProt Q5NUL3)
# T1 construct: expressed in transfected cells
# T1 sequence (Q5NUL3 1-361): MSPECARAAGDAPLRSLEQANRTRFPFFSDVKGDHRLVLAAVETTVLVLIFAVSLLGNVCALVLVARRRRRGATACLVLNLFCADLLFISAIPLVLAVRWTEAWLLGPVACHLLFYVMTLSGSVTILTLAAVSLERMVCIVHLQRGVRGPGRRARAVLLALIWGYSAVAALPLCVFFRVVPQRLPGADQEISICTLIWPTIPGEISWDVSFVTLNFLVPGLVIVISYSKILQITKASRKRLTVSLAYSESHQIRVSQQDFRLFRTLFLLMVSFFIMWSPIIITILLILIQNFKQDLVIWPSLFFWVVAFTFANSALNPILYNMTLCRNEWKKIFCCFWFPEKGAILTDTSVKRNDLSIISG
# Assay: Human GPR120 Calcium Flux Assay, Procedure Calcium A
# Format: cell-based
# Details: HEK-293 cells expressing Human GPR120 short form, FLIPR, 2500 cells / well; read-out: GPR120 Ca^2+ Assay A EC50
# Text: This in vitro assay serves to assess test compound agonist activity against the short splice variant (SVS with Accession number NM_001195755.1 confirmed by sequencing data) of the GPR120 receptor. The Human Short splice variant #2 (NM_001195755.1) is missing an in-frame coding exon compared to variant 1 (the Human Long splice variant NM_181745.3), resulting in a shorter isoform (GPR120-S) lacking a 16 aa protein segment compared to isoform GPR120-L. The assay platform utilizes HEK-293 cells stably transfected to express the Human GPR120 short form. These cells are first loaded with the Ca^+2 sensitive dye, Fluo-4 NW. Upon stimulation, intracellular released Ca^+2 can bind to the dye and alter its fluorescence intensity. This increase in fluorescence signal, and thus the flux in intracellular [Ca^2+], is detected and quantitated by fluorescence imaging using a FLIPR reader. The effect of the agonist is measured as a function of concentration and used to calculate an EC50 based upon a response curve.
# In this procedure 2500 cells / well were employed.
# A Human GPR120 clone (Genbank accession number NM _001195755.1) was placed into the pcDNA3.1 mammalian expression vector carrying the neomycin resistance gene. A stable mammalian cell was generated by placing the above clone into a HEK293 background. Clonal cells responding to long chain fatty acids had expression levels of GPR120 confirmed by RT-qPCR. Human HEK-GPR120 cells were cultured in Dulbecco's Modified Eagle's Medium (DMEM)/F12 medium supplemented with 10% fetal bovine serum (FBS), 1% L-Glutamine and 1% penicillin/streptomycin and 0.5 mg/ml G-418. Cells were split 2 times a week to keep the cells in the log-phase growth.
# In preparation for the assay, HEK cells stably transfected with Human GPR120 (2.5K cells per well in 25uL growth medium) were seeded into 384-well plates and then incubated overnight (37°C, 5% CO2). The next day, the media was changed to 20 µL assay buffer and the cell starved for 1h at 37°C. […]
# The assay was performed on a FLIPR plate reader using the following parameters. Baseline was read for 10 seconds at 1 sec intervals. The program was set to transfer 10µL of ligand from compound plate to cell plate after baseline reading. […] After compound addition, each well was read for 300 sec, with measurements collected at 1 sec intervals.
# The kinetic data from the FLIPR was based upon a 5 minute window for data collection. The fluorescence of each sample well was used for individual calculations of a normalized RFU value, which was defined as maximum response minus the minimum response. The normalized fluorescence reading (RFU) was calculated as follows: RFU = Fmax−Fmin [formula] […]
row,EC50 [nM],Compound
1,231,"O=C(O)CCc1ccc(OCc2c(C(F)(F)F)nsc2-c2ccc(Cl)cc2)c(Cl)c1Cl [Cpd 55, 3-(2,3-dichloro-4-[[5-(4-chlorophenyl)-3-(trifluoromethyl)-1,2-thiazol4-yl]methoxy]phenyl) propanoic acid]"
2,42,"O=C(O)CCc1cc(F)c(OCc2c(Cl)nsc2-c2ccc(Cl)cc2)c(F)c1 [Cpd 75, 3-(4-[[3-chloro-5-(4-chlorophenyl)-1,2-thiazol-4-yl]methoxy]-3,5-difluorophenyl)propanoic acid]"
